# Literature values, collected in patent US20080038318A1, “Composition; Use Of A Composition And A Method For Treating Obesity” (priority 2004, published 2008).
# Test system: normal and obese volunteers
# Details: in vivo
smiles,measurement,value
CCCCCCCCCCC[C@@H](C[C@@H]1OC(=O)[C@H]1CCCCCC)OC(=O)[C@H](CC(C)C)NC=O [orlistat],reduction of the absorption of triacylglycerols,30%
